# Assay results published in US7572774B2, “Methods for treating glutamate cytotoxicity with beta-naphthoquinone compounds” (Centre National de la Recherche Scientific (C.N.R.S.), priority 1999, dated 2009).
# Test system: release of glutamate from synaptosomes of mouse brains
# Experiment: Release of glutamate from synaptosomes of mouse brains (cerebellar mossy fibers), spontaneous and induced by depolarization, chemiluminescence detection
# Assay type: cell-based
# Method: B: Study of the effect of naftazone and of its glucuronide derivatives on the release of glutamate from synaptosomes of mouse brains.
# In order to prepare the synaptosomes of mossy fibers, the Swiss-Webster […] are decapitated and the cerebellum is rapidly removed. Small pieces of tissue (1–2 mm^3) are washed in 100 ml of a mammal saline standard solution containing (mM): NaCl, 136; KCl, 5.6; MgCl2 1.2; CaCl2 2.2; glucose 5.5; NaHCO3 7.5; NaHPO4/Na2HPO4 buffer 1.2.
# An oxygen current is caused to flow through them for 10 minutes.
# In order to dissociate the pieces, they are sucked in a reciprocal movement with a 1 ml pipette.
# The homogenate obtained is diluted in 3 ml of mammal Krebs's solution and is filtered through a Nylon® tissue (mesh 50 μm).
# The filtrate is collected and left to settle for 30–45 min by gravity.
# Synaptosomes derived from the glutarmatergic mossy fibers settle because or their large size with the nuclear fraction. The supernatant is discarded and the sediment is resuspended in 1 ml of a standard solution. The release of glutamate from the synaptosomes is detected according to the technique used for evaluating it in the CSF.
# FIGS. 2A and 2B show the effects of naftazone (at concentrations of 0.5–50 μM) and of its glucuronidated derivative, respectively, on the spontaneous release of glutamate (curve -∘-) and of that induced by depolarization (curve -•-).
# Each point in A and B represents the ISEM average of 3 measurements carried out in triple. In A, the spontaneously released glutamate is continuously measured during an exposure of 1 hour to the tested drug and is compared with controls. Release of glutamate by depolarization is determined after a 1 hour exposure to the tested drug and is compared with controls.
# The drugs are left to incubate for 1 hour with synaptosomal aliquots before the measurement.
smiles,measurement,setting,value
"NC(=O)NNc1ccc2ccccc2c1O[C@@H]1O[C@H](C(=O)O)[C@@H](O)[C@H](O)[C@H]1O [glucuronidated derivative, 1-(1-hydroxy,2-naphthyl)semicarbazide-1-β-O-glucopyranosiduronic acid]",release of glutamate induced by a medium with a high K+ content,"K+ (20 mM) containing Ca (5 mM), FIG. 2B","reduces, in a dose-dependent way"
same,maximum reduction of K+-induced release of glutamate,"at highest concentration tested (32 μM), K+ 20 mM, Ca 5 mM",about 60%
same,spontaneous release of glutamate from synaptosomes,"glucuronidated derivative, range of the concentrations used (FIG. 2B)",does not reduce the spontaneous release of glutamate
